Laboratory results as given in the supplement of paper PMC10307832.

Assays:
Experiment in all cases: relative viability (nuclei count vs DMSO), 5 days (fraction); higher = more cells survive
A-427 = system: A-427
Method in brief: (§1)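 Relative viability divides the nuclei count in treated wells by that in vehicle wells. Lung cancer cell lines were seeded in 1536-well plates, dosed by pin tool the next day, and fixed and stained after 5 days in one step with final 0.05% Triton X-100, 1% formaldehyde and 1 ug/ml Hoechst. Dosing was a single drug or a fixed anchor-drug dose plus five library-drug doses (not always all listed) in √10 steps, and values are medians of duplicate plates imaged at 4×.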

ABC-1 = system: ABC-1
Method in brief: as §1

CAL-12T = system: CAL-12T
Method in brief: as §1

H3255 = system: H3255
Method in brief: as §1

LC-2-ad = system: LC-2-ad
Method in brief: as §1

LCLC-97TM1 = system: LCLC-97TM1
Method in brief: as §1

LK-2 = system: LK-2
Method in brief: as §1

NCI-H1355 = system: NCI-H1355
Method in brief: as §1

NCI-H1563 = system: NCI-H1563
Method in brief: as §1

NCI-H1651 = system: NCI-H1651
Method in brief: as §1

NCI-H1666 = system: NCI-H1666
Method in brief: as §1

NCI-H1792 = system: NCI-H1792
Method in brief: as §1

NCI-H1915 = system: NCI-H1915
Method in brief: as §1

NCI-H2085 = system: NCI-H2085
Method in brief: as §1

NCI-H2087 = system: NCI-H2087
Method in brief: as §1

NCI-H2228 = system: NCI-H2228
Method in brief: as §1

NCI-H322M = system: NCI-H322M
Method in brief: as §1

NCI-H358 = system: NCI-H358
Method in brief: as §1

NCI-H661 = system: NCI-H661
Method in brief: as §1

NCI-H838 = system: NCI-H838
Method in brief: as §1

PC-3 [JPC-3] = system: PC-3 [JPC-3]
Method in brief: as §1

RERF-LC-KJ = system: RERF-LC-KJ
Method in brief: as §1

SK-MES-1 = system: SK-MES-1
Method in brief: as §1

UMC-11 = system: UMC-11
Method in brief: as §1

## CCCCCCCCCCCC1=C(O)C(=O)C=C(O)C1=O [Embelin] + C[C@@H](Oc1cc(-c2cnn(C3CCNCC3)c2)cnc1N)c1c(Cl)ccc(F)c1Cl [Crizotinib] (partner 1 µM)
A-427; first compound 0.08 µM
  relative viability: 0.905
A-427; first compound 0.8 µM
  relative viability: 0.862
A-427; first compound 2.53 µM
  relative viability: 1.03
A-427; first compound 8 µM
  relative viability: 0.881
ABC-1; first compound 0.08 µM
  relative viability: 0.896
ABC-1; first compound 0.8 µM
  relative viability: 1.26
ABC-1; first compound 2.53 µM
  relative viability: 1.7
ABC-1; first compound 8 µM
  relative viability: 1.21
CAL-12T; first compound 0.08 µM
  relative viability: 0.615
CAL-12T; first compound 0.8 µM
  relative viability: 0.785
CAL-12T; first compound 2.53 µM
  relative viability: 0.724
CAL-12T; first compound 8 µM
  relative viability: 0.801
H3255; first compound 0.08 µM
  relative viability: 0.86
H3255; first compound 0.8 µM
  relative viability: 0.979
H3255; first compound 2.53 µM
  relative viability: 0.875
H3255; first compound 8 µM
  relative viability: 1.03
LC-2-ad; first compound 0.08 µM
  relative viability: 0.451
LC-2-ad; first compound 0.8 µM
  relative viability: 0.564
LC-2-ad; first compound 2.53 µM
  relative viability: 0.472
LC-2-ad; first compound 8 µM
  relative viability: 0.427
LCLC-97TM1; first compound 0.8 µM
  relative viability: 0.517
LCLC-97TM1; first compound 2.53 µM
  relative viability: 0.358
LCLC-97TM1; first compound 8 µM
  relative viability: 0.312
LK-2; first compound 0.08 µM
  relative viability: 0.227
LK-2; first compound 0.8 µM
  relative viability: 0.316
LK-2; first compound 2.53 µM
  relative viability: 0.229
LK-2; first compound 8 µM
  relative viability: 0.208
NCI-H1355; first compound 0.08 µM
  relative viability: 1.08
NCI-H1355; first compound 0.8 µM
  relative viability: 1.18
NCI-H1355; first compound 2.53 µM
  relative viability: 1.17
NCI-H1355; first compound 8 µM
  relative viability: 0.974
NCI-H1563; first compound 0.08 µM
  relative viability: 0.8
NCI-H1563; first compound 0.8 µM
  relative viability: 0.837
NCI-H1563; first compound 2.53 µM
  relative viability: 0.785
NCI-H1563; first compound 8 µM
  relative viability: 0.899
NCI-H1651; first compound 0.08 µM
  relative viability: 0.855
NCI-H1651; first compound 0.8 µM
  relative viability: 0.843
NCI-H1651; first compound 2.53 µM
  relative viability: 0.988
NCI-H1651; first compound 8 µM
  relative viability: 0.837
NCI-H1666; first compound 0.08 µM
  relative viability: 0.975
NCI-H1666; first compound 0.8 µM
  relative viability: 1.24
NCI-H1666; first compound 2.53 µM
  relative viability: 1.05
NCI-H1666; first compound 8 µM
  relative viability: 1.01
NCI-H1792; first compound 0.08 µM
  relative viability: 0.997
NCI-H1792; first compound 0.8 µM
  relative viability: 0.974
NCI-H1792; first compound 2.53 µM
  relative viability: 1.19
NCI-H1792; first compound 8 µM
  relative viability: 0.964
NCI-H1915; first compound 0.08 µM
  relative viability: 0.988
NCI-H1915; first compound 0.8 µM
  relative viability: 1.03
NCI-H1915; first compound 2.53 µM
  relative viability: 0.993
NCI-H1915; first compound 8 µM
  relative viability: 0.97
NCI-H2085; first compound 0.08 µM
  relative viability: 0.666
NCI-H2085; first compound 0.8 µM
  relative viability: 0.948
NCI-H2085; first compound 2.53 µM
  relative viability: 0.925
NCI-H2085; first compound 8 µM
  relative viability: 0.835
NCI-H2087; first compound 0.08 µM
  relative viability: 0.886
NCI-H2087; first compound 0.8 µM
  relative viability: 0.899
NCI-H2087; first compound 2.53 µM
  relative viability: 0.766
NCI-H2087; first compound 8 µM
  relative viability: 0.937
NCI-H2228; first compound 0.08 µM
  relative viability: 0.437
NCI-H2228; first compound 0.8 µM
  relative viability: 0.579
NCI-H2228; first compound 2.53 µM
  relative viability: 0.431
NCI-H2228; first compound 8 µM
  relative viability: 0.426
NCI-H322M; first compound 0.08 µM
  relative viability: 0.901
NCI-H322M; first compound 0.8 µM
  relative viability: 1.22
NCI-H322M; first compound 2.53 µM
  relative viability: 1.07
NCI-H322M; first compound 8 µM
  relative viability: 1.16
NCI-H358; first compound 0.08 µM
  relative viability: 0.635
NCI-H358; first compound 0.8 µM
  relative viability: 0.851
NCI-H358; first compound 2.53 µM
  relative viability: 0.547
NCI-H358; first compound 8 µM
  relative viability: 0.791
NCI-H661; first compound 0.08 µM
  relative viability: 1.09
NCI-H661; first compound 0.8 µM
  relative viability: 1.09
NCI-H661; first compound 2.53 µM
  relative viability: 0.846
NCI-H661; first compound 8 µM
  relative viability: 0.997
NCI-H838; first compound 0.08 µM
  relative viability: 0.874
NCI-H838; first compound 0.8 µM
  relative viability: 0.995
NCI-H838; first compound 2.53 µM
  relative viability: 0.961
NCI-H838; first compound 8 µM
  relative viability: 1.02
PC-3 [JPC-3]; first compound 0.08 µM
  relative viability: 0.948
PC-3 [JPC-3]; first compound 0.8 µM
  relative viability: 1.01
PC-3 [JPC-3]; first compound 2.53 µM
  relative viability: 1.06
PC-3 [JPC-3]; first compound 8 µM
  relative viability: 0.987
RERF-LC-KJ; first compound 0.08 µM
  relative viability: 0.883
RERF-LC-KJ; first compound 0.8 µM
  relative viability: 0.912
RERF-LC-KJ; first compound 2.53 µM
  relative viability: 0.906
RERF-LC-KJ; first compound 8 µM
  relative viability: 0.937
SK-MES-1; first compound 0.08 µM
  relative viability: 1.01
SK-MES-1; first compound 0.8 µM
  relative viability: 1.1
SK-MES-1; first compound 2.53 µM
  relative viability: 0.952
SK-MES-1; first compound 8 µM
  relative viability: 1.11
UMC-11; first compound 0.08 µM
  relative viability: 0.639
UMC-11; first compound 0.8 µM
  relative viability: 0.618
UMC-11; first compound 2.53 µM
  relative viability: 0.644
UMC-11; first compound 8 µM
  relative viability: 0.572
